Where two headings read alike, the source gives them in different places.

The test system of data set [1] is patient in need of treatment for long COVID. The data set is described as follows: Treating long COVID (Example 1), clinical screening assessments. It counts as in vivo, human. The conditions noted are these: patients with long COVID. On the procedure: A Compound of Formula (I), such as Compound 2a or Compound 1a, or a pharmaceutically acceptable salt thereof, is administered orally to a patient in need of treatment for long COVID.
In some embodiments, a patient in need of treatment for long COVID is assessed with ADCS-ADL23. The ADCS-ADL23 (Galasko, 1997) is a 23-item assessment of functional impairment in terms of activities of daily living administered to the support person/caregiver. It comprises 23 questions about the subject's involvement and level of performance across items representing daily living. The questions range from basic to instrumental activities of daily living. Each item is rated from the highest level of independent performance to complete loss. The total score range is from 0 to 78, with lower scores indicating greater functional impairment.
A patient in need of treatment for long COVID is assessed with ERP P300. ERP P300 is a quantitative, unbiased, non-invasive method of recording task-related brain processing speed, elicited by external stimuli, e.g., an oddball auditory stimulus, and is a well-established functional biomarker, particularly of working memory access (Ally, 2006). ERP P300 is characterized by a stereotyped series of voltage deflections occurring after the respective odd tone to be counted, with early features (<100 msec) corresponding to unconscious sensory transmission (auditory cortex, N100), and later features produced by cognitive processing in the ventral attentional network, i.e., P300, referring to the large positive deflection at roughly 300 msec in healthy adults (young or elderly). The P300 latency is sensitive to detecting reduced synaptic transmission related to cognitive decline in AD patients and other dementias (Olichney, 2011).

The subject of data set [2] is scopolamine-induced spatial memory deficits in rats. The experiment in a line: Scopolamine-induced spatial memory deficit, Morris water maze (3 mg/kg scopolamine, 8 days). It counts as in vivo, rat.
Data set [3] has as its system Rat hippocampal neurons. The experiment in a line: Synaptogenesis assay. It counts as cell-based. The conditions noted are these: for Significant increase in: Synapses: Table 4 study.
Data set [4] concerns Rat hippocampal neurons. The data set is described as follows: Neurite outgrowth assay. Type of data set: cell-based.
Data set [5] relates to Rat primary cortical neuron cultures. Type of data set: cell-based. Particulars: for Significance of neuroprotection vs 1 uM LPS: 24 h LPS.

Regarding `CCC(C)CN1CC2N(C(=O)c3ccc(OC(F)F)cc3)CCC(=O)N2[C@@H](C)C1=O` (some centres unmarked) [Compound 2a], the “patient outcome as measured by one or more of the screening assessments” value in data set [1] is given as “reduces the rate of decline, stabilizes, or improves patient outcome”. The safety and tolerability entry in data set [1] is “acceptable safety and tolerability”. In addition, the “Cognitive Improvement” value was “− (− indicates post-test p-value above 0.06)” in data set [2] (0.1 mg/kg PO), “+++ (+++ indicates post-test p-value below 0.01)” in data set [2] (1 mg/kg PO) and “− (− indicates post-test p-value above 0.06)” in data set [2] (10 mg/kg PO). Moreover, in the data set with Rat hippocampal neurons [3], the “synapse counts (in words)” value is “increase synapse counts at all concentrations tested”. In addition, the “Significant increase in: Synapses” value in the data set with Rat hippocampal neurons [3] (1 nM), in the data set with Rat hippocampal neurons [3] (10 nM) and with Rat hippocampal neurons [3] (100 nM) was “++++ (++++ = p < 0.0001)” throughout. Further, the “neurite length / extension of neurites (in words)” value in the data set with Rat hippocampal neurons [4] was “increase neurite length at a concentration of 10 nM”. In addition, the “Significant increase in: Neurite length” value with Rat hippocampal neurons [4] (10 nM, Table 4 study) was “++++ (++++ = p < 0.0001)”. Further, the “Significance of neuroprotection vs 1 uM LPS” value in data set [5] (0.1 nM), in data set [5] (1 nM), in data set [5] (10 nM), in data set [5] (100 nM) and in data set [5] (1 μM) was “+++ (+++ indicates p<0.001)” in each case. The “protection of primary neurons from LPS-stimulated inflammatory toxicity” value in data set [5] (at at least one dose tested) was “protected primary neurons from LPS-stimulated inflammatory toxicity”.
